Laboratory results reported in patent US11529323B2 (priority 2017, dated 2022).

Columns and labels:
[1] = Single dose AR-42 plasma and tissue pharmacokinetics in mouse; assay type: in vivo; settings: for Plasma exposure: tumor-free mice
Method: FIG. 1A is a graph showing results of a single dose AR-42 plasma and tissue pharmacokinetic study. Tumor-free […] mice were administered a single dose of 10 mg/kg, 20 mg/kg or 50 mg/kg AR-42 (n=3) and plasma (dashed) and gastrocnemius (solid) tissue analyzed for AR-42 content at different times using LC-MS/MS analyses according to Materials and Methods (Mean±SD). FIG. 1B is a graph showing AR-42 dose-response. Starting six days after C-26 cell injection, animals received vehicle or AR-42 orally at 10 or 20 mg/kg daily or 50 mg/kg every other day for 13 days (n=4-6). Day 18 bodyweights compared to Day 0, corrected for tumor mass according to the Materials and Methods. Bars represent mean±SD. *p<0.05, ****p<0.0001 versus tumor-bearing vehicle-treated controls, Tukey's multiple comparison test. FIG. 1C is a table showing AR-42's in vitro human HDAC inhibition profile determined using recombinant enzymatic assays. […] Longitudinal mean bodyweights per treatment group are presented as a percent change from pre-study body weights. Tumor-free animals (circles), tumor-bearing animals (bars). Inset: terminal tumor volumes (mean+SD, n=5-6 per group).
Pharmacokinetic studies were performed as previously described (Cheng H et al. AAPS J. 2016 18(3):737-45).
Pharmacokinetic studies were performed as previously described (Cheng H, et al. AAPS J. 2016 18(3):737-45) with the following modifications. Seven week-old, male, tumor-free CD2F1 mice (n=3 per dose and time point) were administered single oral doses of 10, 20 and 50 mg/kg AR-42 and then sacrificed 0.25, 4 and 24 hours later. Fifty mg of gastrocnemius muscle tissue was flash frozen in 2 mL Beadblaster™ 24 (MIDSCl; St. Louis, Mo.) tubes and stored at −80° C. Samples were homogenized for 6-cycles using a Beadblaster 24 with analytical standards in 1 mL methanol and then centrifuged at 13,000 rpm (4° C.) for 10 min. Supernatants were transferred to glass tubes, dried under nitrogen, then reconstituted in 200 μL 40% methanol/0.1% formic acid. Plasma preparation and LC-MS/MS analyses were performed as previously described (Sborov D W, et al. Leuk Lymphoma 2017 58(10):2310-8). Mouse plasma and muscle pharmacokinetic parameters were estimated as previously described with the exception of Cavg which was calculated as AUCall/[Dosing Interval(h)].

IL-6 = test: Serum IL-6 ELISA, Study 2; assay type: in vivo, mouse; settings: Study 2 terminal serum; AR-42 10 mg/kg
Source text: (§1) FIG. 4A is a table showing multiplex analysis of diverse serum cytokines in terminal samples from Study 2. Presented cytokines are limited to those showing significant differences from tumor-bearing vehicle-treated controls. G-CSF: granulocyte colony-stimulating factor, GM-CSF: granulocyte macrophage colony-stimulating factor, IL-6: interleukin-6, IL-17: interleukin-17, IP-10: interferon gamma-induced protein 10, KC: chemokine (C-X-C motif) ligand 1, LIF: leukemia inhibitory factor, M-CSF: macrophage colony-stimulating factor. FIG. 4B is a bar graph showin ELISA analysis of serum IL-6 levels in terminal samples from Study 2. ND, not detected. FIG. 4C is a plot showing individual animal serum IL-6 values as determined in A plotted against tumor-corrected terminal bodyweights from Study 2 (Pearson's Correlation). […] FIG. 4E is a plot showing spleen weights normalized to tumor-corrected terminal body weights of mice from Study 2. FIG. 4F is a bar graph showing ELISA analysis of STAT3 within C-26 tumors from Study 2. […]
(§2) Serum cytokine panel analyses were performed by a commercial vendor (Eve Technologies, Calgary, Canada) as previously described. Serum interleukin-6 (IL-6) was measured using a commercial ELISA kit (R&D Systems, Minneapolis, Minn., USA) according to the manufacturer's instructions.

phospho-STAT3 (pSTAT3) = test: Phospho-STAT3/STAT3 ELISA in C-26 tumors, Study 2; assay type: in vivo, mouse; settings: AR-42 10 mg/kg
Source text: as §1
Phospho-STAT3/STAT3 Analysis: Expression of phospho-STAT3 and total STAT3 in C-26 tumor tissues was measured using commercial sandwich ELISA kits according to the manufacturer's instructions (PathScan® Phospho-Stat3, #7300, and Total Stat3, #7305, Cell Signaling Technology, Danvers, Mass.).

[2] = Sborov et al. 2017; cited from earlier work
serum cytokines = test: Serum cytokine panel, multiplex analysis, Study 2, tumor-free mice; assay type: in vivo, mouse; settings: GTx-024 15 mg/kg p.o. qd, Day 17 sacrifice, mean ± SD
Method: This confirmatory study was performed exactly as Study 1 with expanded animal numbers. Tumor-free control groups were maintained at 6 animals each, whereas 10 animals were included in each of the tumor-bearing groups. […] Grip strength was measured on study days 0 (baseline) and 16. Due to rapid model progression, this study was terminated after only 12 days of treatment.
as §2

Q: Which results are given for CC(C)[C@H](C(=O)Nc1ccc(C(=O)NO)cc1)c1ccccc1 [AR-42, (S)—N-hydroxy-4-(3-methyl-2-phenylbutanamido)benzamide]?
A: concentration at 4 h ([1]; male, mouse, in vivo, single oral dose 10 mg/kg, remained above for 4 hours, read-out: gastrocnemius muscle concentrations): > 700 nM; mouse plasma exposure at 50 mg/kg relative to well tolerated plasma exposure in humans ([1]; oral 50 mg/kg in mice versus 8.5 μM*h in humans): 8.7 fold; Plasma exposure ([1]; single oral dose 10 mg/kg): 10.9 µM·h; Plasma exposure ([1]; single oral dose 50 mg/kg): 74.3 µM·h; circulating IL-6 levels (ELISA) (IL-6): did not affect circulating IL-6 levels; pSTAT3 signaling within the C-26 tumors (phospho-STAT3 (pSTAT3)): did not significantly suppress pSTAT3 signaling within the C-26 tumors; well tolerated plasma exposure in humans [2]: 8.5 µM·h

Q: With C[C@](O)(COc1ccc(C#N)cc1)C(=O)Nc1ccc(C#N)c(C(F)(F)F)c1 [GTx-024, (2S)-3-(4-cyanophenoxy)-N-(4-cyano-3-(trifluoromethyl)phenyl)-2-hydroxy-2-methylpropanamide] as the compound, how does the “Eotaxin, serum” value (serum cytokines) read?
A: The value was 669.53 ± 100.70 pg/mL.

Q: And the “G-CSF, serum” value (serum cytokines)?
A: Its value is 338.39 ± 71.70 pg/mL.

Q: And the “GM-CSF, serum” value (serum cytokines)?
A: Its value is 13.27 ± 4.62 pg/mL.

Q: What about the “IFNg, serum” value (serum cytokines) of the same compound?
A: Its value is 5.93 ± 2.14 pg/mL.

Q: What about the “IL12 (p40), serum” value (serum cytokines) of the same compound?
A: The value was 22.48 ± 13.42 pg/mL.

Q: What about the “IL-1a, serum” value (serum cytokines) of the same compound?
A: Its value is 60.41 ± 56.12 pg/mL.

Q: What about the “IL-1b, serum” value (serum cytokines) of the same compound?
A: Its value is 14.65 ± 5.66 pg/mL.

Q: What about the “IL-2, serum” value (serum cytokines) of the same compound?
A: Its value is 15.43 ± 6.56 pg/mL.

Q: What about the “IL-3, serum” value (serum cytokines) of the same compound?
A: Its value is 1.10 ± 0.63 pg/mL.

Q: What about the “IL-4, serum” value (serum cytokines) of the same compound?
A: The value was 0.48 ± 0.37 pg/mL.

Q: What about the “IL-5, serum” value (serum cytokines) of the same compound?
A: The value was 5.71 ± 3.26 pg/mL.

Q: And the “IL-6, serum” value (serum cytokines)?
A: The value was 2.45 ± 1.31 pg/mL.

Q: What about the “IL-7, serum” value (serum cytokines) of the same compound?
A: The value was 11.51 ± 11.06 pg/mL.

Q: And the “IL-9, serum” value (serum cytokines)?
A: Its value is 8.02 ± 6.78 pg/mL.

Q: And the “IL-10, serum” value (serum cytokines)?
A: The value was 2.38 ± 1.13 pg/mL.

Q: What about the “IL-12 (p70), serum” value (serum cytokines) of the same compound?
A: Its value is 10.83 ± 6.12 pg/mL.

Q: What about the “IL-13, serum” value (serum cytokines) of the same compound?
A: The value was 29.87 ± 12.81 pg/mL.

Q: And the “IL-15, serum” value (serum cytokines)?
A: The value was 131.33 ± 70.97 pg/mL.

Q: What about the “IL-17, serum” value (serum cytokines) of the same compound?
A: Its value is 5.01 ± 1.18 pg/mL.

Q: What about the “IP-10, serum” value (serum cytokines) of the same compound?
A: The value was 145.68 ± 48.83 pg/mL.

Q: What about the “KC, serum” value (serum cytokines) of the same compound?
A: The value was 90.02 ± 17.69 pg/mL.

Q: What about the “LIF, serum” value (serum cytokines) of the same compound?
A: Its value is 2.50 ± 2.34 pg/mL.

Q: What about the “LIX, serum” value (serum cytokines) of the same compound?
A: Its value is 1316.67 ± 1662.66 pg/mL.

Q: What about the “M-CSF, serum” value (serum cytokines) of the same compound?
A: The value was 27.23 ± 10.09 pg/mL.

Q: What about the “MCP-1, serum” value (serum cytokines) of the same compound?
A: The value was 54.54 ± 7.47 pg/mL.

Q: What about the “MIG, serum” value (serum cytokines) of the same compound?
A: Its value is 89.29 ± 41.83 pg/mL.

Q: And the “MIP-1a, serum” value (serum cytokines)?
A: Its value is 75.46 ± 29.41 pg/mL.

Q: And the “MIP-1b, serum” value (serum cytokines)?
A: Its value is 87.69 ± 10.61 pg/mL.

Q: What about the “MIP-2, serum” value (serum cytokines) of the same compound?
A: The value was 136.75 ± 47.91 pg/mL.

Q: What about the “RANTES, serum” value (serum cytokines) of the same compound?
A: Its value is 20.84 ± 10.38 pg/mL.

Q: What about the “TNFa, serum” value (serum cytokines) of the same compound?
A: Its value is 12.15 ± 4.24 pg/mL.

Q: What about the “VEGF, serum” value (serum cytokines) of the same compound?
A: The value was 0.87 ± 0.32 pg/mL.
